The subject of the first series is Cyp1a2 mRNA in liver. Kind of series: Cyp1a2 gene expression in liver (real-time PCR). The format is in vivo, female C57BL/6 mice. As to conditions: dose metric Adm dose; 3 days after single oral dose. The procedure: Animals. Eight-week-old female C57BL/6 mice (Harlan laboratories, Venray, the Netherlands) were randomly assigned to treatment groups (six animals per group) and allowed to acclimate for 1.5 weeks. The animals were housed in groups in standard cages and conditions (23 ± 2°C, 50–60% relative humidity, 12-hr dark/light cycle) with free access to food and water. Mice received a single dose of test compound by oral gavage at a dosing volume of 10 mL/kg body weight (BW). Mice treated with corn oil vehicle (10 mL/kg BW) served as controls. For each congener, five different doses were administered, ranging from 0.5–100 μg/kg BW (TCDD) to 5,000–500,000 µg/kg BW (PCB-153). Detailed information on doses is provided in Supplemental Material, Table S1 (http://dx.doi.org/10.1289/ehp.1206336). On day 3 after dosing, animals were euthanized by CO2/O2 asphyxiation, and blood was immediately collected from the abdominal aorta. The liver, thymus, spleen, and adipose tissue were removed, weighed (liver, thymus, and spleen), snap frozen, and stored at –80°C. All animal treatments were performed with permission of the Animal Ethical Committee (DEC Utrecht) and performed according to the [Law on Animal Experiments (1977)]. Animals were treated humanely and with regard for alleviation of suffering.
RNA isolation and quantitative real-time polymerase chain reaction (PCR). Total RNA was isolated from liver and PBLs using a QIAGEN RNeasy kit (QIAGEN). Purity and concentration of the isolated RNA was determined by measuring the absorbance ratio at 260/280 nm and 230/260 nm with a Nanodrop 2000 spectrophotometer (Thermo Scientific, Asheville, NC, USA). RNA was reverse transcribed to complementary DNA (cDNA) using the iScript cDNA synthesis Kit (Bio-Rad, Veenendaal, the Netherlands). Quantitative real-time PCR analyses were performed using the iQ Real-Time PCR Detection System with SYBR green (Bio-Rad). Amplification reactions were set up with […] containing 12.5 μL iQ SYBR Green Supermix (Bio-rad), 0.5 μL distilled H2O, 1 μL (10 μM) forward primer, 1 μL (10 μM) reverse primer, and 10 μL first strand cDNA (10X diluted). Primer sequences were as follows: Cyp1a1: forward-5´-GGTTAACCATGACCGGGAACT-3´ and reverse-5´-TGCCCAAACCAAAGAGAGTGA-3´ ([Schulz et al. 2012]); Cyp1a2: forward-5´-ACATTCCCAAGGAGCGCTGTATCT-3´ and reverse-5´-GTCGATGGCCGAGTTGTTATTGGT-3´ ([Flaveny et al. 2010]); Cyp1b1: forward-5´-GTGGCTGCTCATCCTCTTTACC-3´ and reverse-5´-CCCACAACCTGGTCCAACTC-3´ ([Berge et al. 2004]); β-actin: forward-5´-ATGCTCCCCGGGCTGTAT-3´ and reverse-5´-CATAGGAGTCCTTCTGACCCATTC-3´ ([Schulz et al. 2012]). All primers were run through the National Center for Biotechnology Information Primer-BLAST database (http://www.ncbi.nlm.nih.gov/tools/primer-blast/) to confirm specificity and validate for optimal annealing temperature (60°C for all primers) and efficiency. The efficiency of all primer pairs was 98–102% (tested at 60°C). The following program was used for denaturation and amplification of cDNA: 3 min at 95°C, followed by 40 cycles of 15 sec at 95°C and 45 sec at 60°C. Gene expression for each sample was expressed as threshold cycle (Ct), normalized to the reference gene β-actin (ΔCt). We calculated fold induction relative to the control group.
Data analysis. We obtained concentration–response curves using a sigmoidal dose–response nonlinear regression curve fit with variable slope (GraphPad Prism 6.01; GraphPad Software Inc., San Diego, CA, USA):
In this Hill equation, y is the dependent variable (EROD activity or fold induction of mRNA levels), x the independent variable (administered or systemic dose), E0 is the estimated background response level, Emax is the maximum response, b is the estimated median effective concentration (EC50), and n is the shaping parameter of the Hill curve.
Using the congener-specific BMR20TCDD concentration, REPs were calculated relatively to TCDD: […]
(In general: In qPCR the cycle at which signal appears reflects the starting amount.)
Turning to `Clc1cc2oc3c(Cl)c(Cl)c(Cl)cc3c2cc1Cl` [Congener 4-PeCDF, 2,3,4,7,8-pentachlorodibenzofuran], the “BMR20TCDD Liver Cyp1a2 mRNA” value is on record as 8.83 µg/kg BW.
Regarding `Clc1ccc(-c2cc(Cl)c(Cl)cc2Cl)cc1Cl` [PCB-118, 2,3´,4,4´,5-pentachlorobiphenyl], the “BMR20TCDD Liver Cyp1a2 mRNA” value was 15,522 µg/kg BW.
With `Clc1ccc(-c2cc(Cl)c(Cl)c(Cl)c2)cc1Cl` [PCB-126, 3,3´,4,4´,5-pentachlorobiphenyl], the “BMR20TCDD Liver Cyp1a2 mRNA” value worked out at 87.4 µg/kg BW.
The same measure, in the same setting: then `Clc1ccc(-c2cc(Cl)c(Cl)c(Cl)c2Cl)cc1Cl` [PCB-156, 2,3,3´,4,4´,5-hexachlorobiphenyl], with 12,085 µg/kg BW.
Take `Clc1cc2c(cc1Cl)Oc1c(cc(Cl)c(Cl)c1Cl)O2` [PeCDD, 1,2,3,7,8-pentachlorodibenzodioxin]: the “BMR20TCDD Liver Cyp1a2 mRNA” value amounted to 0.56 µg/kg BW.
Consider `Clc1cc2c(cc1Cl)Oc1cc(Cl)c(Cl)cc1O2` [TCDD, 2,3,7,8-tetrachlorodibenzodioxin, reference compound], for which the “BMR20TCDD Liver Cyp1a2 mRNA” value came to 0.41 µg/kg BW.

The series is the same for the next values; noted with them: dose metric Syst adipose; 3 days after single oral dose.
As for `Clc1cc2oc3c(Cl)c(Cl)c(Cl)cc3c2cc1Cl` [Congener 4-PeCDF, 2,3,4,7,8-pentachlorodibenzofuran], the “BMR20TCDD Liver Cyp1a2 mRNA” value was found to be 6.53 ng/g lipid.
Same read-out and setting: then `Clc1ccc(-c2cc(Cl)c(Cl)cc2Cl)cc1Cl` [PCB-118, 2,3´,4,4´,5-pentachlorobiphenyl], with 117,517 ng/g lipid; and `Clc1ccc(-c2cc(Cl)c(Cl)c(Cl)c2)cc1Cl` [PCB-126, 3,3´,4,4´,5-pentachlorobiphenyl], with 120 ng/g lipid; and `Clc1ccc(-c2cc(Cl)c(Cl)c(Cl)c2Cl)cc1Cl` [PCB-156, 2,3,3´,4,4´,5-hexachlorobiphenyl], with 22,134 ng/g lipid.
The same measure, in the same setting: then `Clc1cc2c(cc1Cl)Oc1c(cc(Cl)c(Cl)c1Cl)O2` [PeCDD, 1,2,3,7,8-pentachlorodibenzodioxin], with 1.20 ng/g lipid.
As for `Clc1cc2c(cc1Cl)Oc1cc(Cl)c(Cl)cc1O2` [TCDD, 2,3,7,8-tetrachlorodibenzodioxin, reference compound], the “BMR20TCDD Liver Cyp1a2 mRNA” value turned out to be 1.73 ng/g lipid.

The series is the same for the next values; noted with them: dose metric Syst plasma; 3 days after single oral dose.
`Clc1cc2oc3c(Cl)c(Cl)c(Cl)cc3c2cc1Cl` [Congener 4-PeCDF, 2,3,4,7,8-pentachlorodibenzofuran]: the “BMR20TCDD Liver Cyp1a2 mRNA” value was found to be 8.01 ng/g lipid.
Take `Clc1ccc(-c2cc(Cl)c(Cl)cc2Cl)cc1Cl` [PCB-118, 2,3´,4,4´,5-pentachlorobiphenyl]: the “BMR20TCDD Liver Cyp1a2 mRNA” value is listed as 103,230 ng/g lipid.
On to `Clc1ccc(-c2cc(Cl)c(Cl)c(Cl)c2)cc1Cl` [PCB-126, 3,3´,4,4´,5-pentachlorobiphenyl], for which the “BMR20TCDD Liver Cyp1a2 mRNA” value is given as 135 ng/g lipid.
`Clc1ccc(-c2cc(Cl)c(Cl)c(Cl)c2Cl)cc1Cl` [PCB-156, 2,3,3´,4,4´,5-hexachlorobiphenyl]: the “BMR20TCDD Liver Cyp1a2 mRNA” value is 60,702 ng/g lipid.
On the same count and under the same terms, then `Clc1cc2c(cc1Cl)Oc1c(cc(Cl)c(Cl)c1Cl)O2` [PeCDD, 1,2,3,7,8-pentachlorodibenzodioxin], with 2.36 ng/g lipid.
In the case of `Clc1cc2c(cc1Cl)Oc1cc(Cl)c(Cl)cc1O2` [TCDD, 2,3,7,8-tetrachlorodibenzodioxin, reference compound], the “BMR20TCDD Liver Cyp1a2 mRNA” value worked out at 1.85 ng/g lipid.

The same series, now with this note: relative to TCDD; dose metric Adm dose (µg/kg BW).
For `Clc1cc2oc3c(Cl)c(Cl)c(Cl)cc3c2cc1Cl` [Congener 4-PeCDF, 2,3,4,7,8-pentachlorodibenzofuran], the “REP Liver Cyp1a2 mRNA” value was 0.05.
For the compound `Clc1ccc(-c2cc(Cl)c(Cl)cc2Cl)cc1Cl` [PCB-118, 2,3´,4,4´,5-pentachlorobiphenyl], the “REP Liver Cyp1a2 mRNA” value is on record as 0.00003.
On to `Clc1ccc(-c2cc(Cl)c(Cl)c(Cl)c2)cc1Cl` [PCB-126, 3,3´,4,4´,5-pentachlorobiphenyl], for which the “REP Liver Cyp1a2 mRNA” value was determined as 0.005.
With `Clc1ccc(-c2cc(Cl)c(Cl)c(Cl)c2Cl)cc1Cl` [PCB-156, 2,3,3´,4,4´,5-hexachlorobiphenyl], the “REP Liver Cyp1a2 mRNA” value worked out at 0.00003.
On to `Clc1cc2c(cc1Cl)Oc1c(cc(Cl)c(Cl)c1Cl)O2` [PeCDD, 1,2,3,7,8-pentachlorodibenzodioxin], for which the “REP Liver Cyp1a2 mRNA” value was found to be 0.7.
Regarding `Clc1cc2c(cc1Cl)Oc1cc(Cl)c(Cl)cc1O2` [TCDD, 2,3,7,8-tetrachlorodibenzodioxin, reference compound], the “REP Liver Cyp1a2 mRNA” value amounted to 1.

Still in this series, the particulars now being: relative to TCDD; dose metric Syst adipose (ng/g lipid).
Consider `Clc1cc2oc3c(Cl)c(Cl)c(Cl)cc3c2cc1Cl` [Congener 4-PeCDF, 2,3,4,7,8-pentachlorodibenzofuran], for which the “REP Liver Cyp1a2 mRNA” value amounted to 0.3.
`Clc1ccc(-c2cc(Cl)c(Cl)cc2Cl)cc1Cl` [PCB-118, 2,3´,4,4´,5-pentachlorobiphenyl]: the “REP Liver Cyp1a2 mRNA” value is reported as 0.00001.
With `Clc1ccc(-c2cc(Cl)c(Cl)c(Cl)c2)cc1Cl` [PCB-126, 3,3´,4,4´,5-pentachlorobiphenyl], the “REP Liver Cyp1a2 mRNA” value was determined as 0.01.
In the case of `Clc1ccc(-c2cc(Cl)c(Cl)c(Cl)c2Cl)cc1Cl` [PCB-156, 2,3,3´,4,4´,5-hexachlorobiphenyl], the “REP Liver Cyp1a2 mRNA” value came to 0.00008.
As for `Clc1cc2c(cc1Cl)Oc1c(cc(Cl)c(Cl)c1Cl)O2` [PeCDD, 1,2,3,7,8-pentachlorodibenzodioxin], the “REP Liver Cyp1a2 mRNA” value turned out to be 1.
As for `Clc1cc2c(cc1Cl)Oc1cc(Cl)c(Cl)cc1O2` [TCDD, 2,3,7,8-tetrachlorodibenzodioxin, reference compound], the “REP Liver Cyp1a2 mRNA” value was 1.

Still in this series, the particulars now being: relative to TCDD; dose metric Syst liver (ng/g lipid).
`Clc1cc2oc3c(Cl)c(Cl)c(Cl)cc3c2cc1Cl` [Congener 4-PeCDF, 2,3,4,7,8-pentachlorodibenzofuran]: the “REP Liver Cyp1a2 mRNA” value is 0.03.
With `Clc1ccc(-c2cc(Cl)c(Cl)cc2Cl)cc1Cl` [PCB-118, 2,3´,4,4´,5-pentachlorobiphenyl], the “REP Liver Cyp1a2 mRNA” value was 0.0002.
With `Clc1ccc(-c2cc(Cl)c(Cl)c(Cl)c2)cc1Cl` [PCB-126, 3,3´,4,4´,5-pentachlorobiphenyl], the “REP Liver Cyp1a2 mRNA” value came out at 0.002.
Take `Clc1ccc(-c2cc(Cl)c(Cl)c(Cl)c2Cl)cc1Cl` [PCB-156, 2,3,3´,4,4´,5-hexachlorobiphenyl]: the “REP Liver Cyp1a2 mRNA” value is on record as 0.0003.
The same measure, in the same setting: then `Clc1cc2c(cc1Cl)Oc1c(cc(Cl)c(Cl)c1Cl)O2` [PeCDD, 1,2,3,7,8-pentachlorodibenzodioxin], with 0.5; and `Clc1cc2c(cc1Cl)Oc1cc(Cl)c(Cl)cc1O2` [TCDD, 2,3,7,8-tetrachlorodibenzodioxin, reference compound], with 1.

The same series, now with this note: relative to TCDD; dose metric Syst liver (ng/g liver).
On to `Clc1cc2oc3c(Cl)c(Cl)c(Cl)cc3c2cc1Cl` [Congener 4-PeCDF, 2,3,4,7,8-pentachlorodibenzofuran], for which the “REP Liver Cyp1a2 mRNA” value is 0.04.
Consider `Clc1ccc(-c2cc(Cl)c(Cl)cc2Cl)cc1Cl` [PCB-118, 2,3´,4,4´,5-pentachlorobiphenyl], for which the “REP Liver Cyp1a2 mRNA” value is 0.0003.
Take `Clc1ccc(-c2cc(Cl)c(Cl)c(Cl)c2)cc1Cl` [PCB-126, 3,3´,4,4´,5-pentachlorobiphenyl]: the “REP Liver Cyp1a2 mRNA” value worked out at 0.003.
In the case of `Clc1ccc(-c2cc(Cl)c(Cl)c(Cl)c2Cl)cc1Cl` [PCB-156, 2,3,3´,4,4´,5-hexachlorobiphenyl], the “REP Liver Cyp1a2 mRNA” value is given as 0.0006.
In the case of `Clc1cc2c(cc1Cl)Oc1c(cc(Cl)c(Cl)c1Cl)O2` [PeCDD, 1,2,3,7,8-pentachlorodibenzodioxin], the “REP Liver Cyp1a2 mRNA” value was 0.6.
For `Clc1cc2c(cc1Cl)Oc1cc(Cl)c(Cl)cc1O2` [TCDD, 2,3,7,8-tetrachlorodibenzodioxin, reference compound], the “REP Liver Cyp1a2 mRNA” value is listed as 1.

The series is the same for the next values; noted with them: relative to TCDD; dose metric Syst plasma (ng/g lipid).
As for `Clc1cc2oc3c(Cl)c(Cl)c(Cl)cc3c2cc1Cl` [Congener 4-PeCDF, 2,3,4,7,8-pentachlorodibenzofuran], the “REP Liver Cyp1a2 mRNA” value is listed as 0.2.
Still for that read-out and setting: then `Clc1ccc(-c2cc(Cl)c(Cl)cc2Cl)cc1Cl` [PCB-118, 2,3´,4,4´,5-pentachlorobiphenyl], with 0.00002; and `Clc1ccc(-c2cc(Cl)c(Cl)c(Cl)c2)cc1Cl` [PCB-126, 3,3´,4,4´,5-pentachlorobiphenyl], with 0.01; and `Clc1ccc(-c2cc(Cl)c(Cl)c(Cl)c2Cl)cc1Cl` [PCB-156, 2,3,3´,4,4´,5-hexachlorobiphenyl], with 0.00003.
Take `Clc1cc2c(cc1Cl)Oc1c(cc(Cl)c(Cl)c1Cl)O2` [PeCDD, 1,2,3,7,8-pentachlorodibenzodioxin]: the “REP Liver Cyp1a2 mRNA” value is recorded as 0.8.
Same read-out and setting: for `Clc1cc2c(cc1Cl)Oc1cc(Cl)c(Cl)cc1O2` [TCDD, 2,3,7,8-tetrachlorodibenzodioxin, reference compound] the value was 1.
